# From patent publication US20040086901A1, “Database for analyzing gene function and method of analyzing gene function by dspa” (priority 2000, published 2004)
# Legend:
# Type in all cases: cell-based, mouse
# [1] = system: NIH3T3 cells overexpressing caspase-2; experiment: MTT cell viability, caspase-2 overexpressing cells vs parental line; details: caspase-2 high-expressing cells / parental cell line, 3 to 4 days
# Protocol: (§1) With regard to the function-known genes, the genes shown in the left column of Table 2 were used. With regard to the drugs, those shown in Table 1 were dissolved in DMSO to an extent of 100-fold of the maximum concentration for the search of the drugs and used. With regard to the cells, incubated NIH3T3 or ras-NIH3T3 cells were used.
# (§2) Full-length cDNA of each function-known genes was incorporated into an expression vector (pRc-CMV, etc.) and transfected into NIH3T3 cells by a common method. Transformed cells were isolated using the resistance to G-418 as an index and the expression of the transfected gene in each cell was investigated by Western blotting method to select a highly expressing line.
# (§3) Cell viabilities were measured according to the following procedures.
# (§4) 1) From the 2nd to the 11th rows of a 96-well plate were filled with DMEM (50 μl). The 12th row was filled with 100 μl of DMEM.
# (§5) 2) The 1st row was filled with 98 μl of DMEM.
# (§6) 3) Drugs (2 μl each) were added into the 1st row.
# (§7) 4) Continuous double-dilution was conducted from the 1st to the 9th rows. Fifty μl were taken out from the 9th row and discarded. The plate was preserved in a CO2 incubator.
# (§8) 5) Cells (each high-expressing cells and the parental cell line) were detached from the medium using a trypsin solution, suspended in 10% CS-DMEM and transferred to a test tube and cell numbers (cell/ml) were counted.
# (§9) 6) The cells were diluted to a concentration of 1×10^5 cells/ml, and 50 μl of the cell suspension were added to the 1st to the 11th rows of the plate followed by gently stirring.
# (§10) 7) The plate was transferred to the CO2 incubator and incubated for 3 to 4 days.
# (§11) 8) MTT (5 mg/ml in PBS) (10 μl) was added to the 1st to the 12th rows of the plate and incubated in the CO2 incubator at 37° C. for 4 hours.
# (§12) 9) A reaction stop solution (0.04N HCl in isopropanol) (150 μl) was added followed by mixing well and being allowed to stand at room temperature for about 2 hours.
# (§13) 10) Coloration of formazan which was a metabolite of the MTT dye was measured using a microplate reader. The measurement wavelength was 574 nm and the reference wavelength was 655 nm. The 10th and the 11th rows of the plate were 100% controls and the 12th row was a 0% control.
# (§14) As an index for the sensitivity of highly gene-expressing cells and the parental cell line to various drugs, each of the IC40 values thereof was specified and ratios of the IC40 values were calculated. FIG. 2 and FIG. 3 are the examples where ratios of IC40 values were calculated from a curve showing the dependency on the concentration of the chemical versus the viability. After that, logarithmic values of ratios of IC40 values were calculated from each gene.
# [2] = system: NIH3T3 cells overexpressing calpastatin; experiment: MTT cell viability, calpastatin overexpressing cells vs parental line; details: calpastatin high-expressing cells / parental cell line, 3 to 4 days
# Protocol: as §1, §2, §3, §4, §5, §6, §7, §8, §9, §10, §11, §12, §13, §14
# [3] = system: NIH3T3 cells overexpressing p16/INK4A; experiment: MTT cell viability, p16/INK4A overexpressing cells vs parental line; details: p16/INK4A high-expressing cells / parental cell line, 3 to 4 days
# Protocol: as §1, §2, §3, §4, §5, §6, §7, §8, §9, §10, §11, §12, §13, §14
# [4] = system: NIH3T3 cells overexpressing Bax; experiment: MTT cell viability, Bax overexpressing cells vs parental line; details: 3 to 4 days
# Protocol: as §1, §2, §3, §4, §5, §6, §7, §8, §9, §10, §11, §12, §13
# (§15) As an index for the sensitivity of highly gene-expressing cells and the parental cell line to various drugs, each of the IC40 values thereof was specified and ratios of the IC40 values were calculated. […] After that, logarithmic values of ratios of IC40 values were calculated from each gene.
# [5] = system: NIH3T3 cells overexpressing p33/ING1; experiment: MTT cell viability, p33/ING1 overexpressing cells vs parental line; details: p33/ING1 high-expressing cells / parental cell line, 3 to 4 days
# Protocol: as §1, §2, §3, §4, §5, §6, §7, §8, §9, §10, §11, §12, §13, §14
# [6] = system: NIH3T3 cells overexpressing Ki-ras; experiment: MTT cell viability, Ki-ras overexpressing cells vs parental line; details: Ki-ras high-expressing cells / parental cell line, 3 to 4 days
# Protocol: as §1, §2, §3, §4, §5, §6, §7, §8, §9, §10, §11, §12, §13, §14
# [7] = system: NIH3T3 cells overexpressing Regucalcin; experiment: MTT cell viability, Regucalcin overexpressing cells vs parental line; details: Regucalcin high-expressing cells / parental cell line, 3 to 4 days
# Protocol: as §1, §2, §3, §4, §5, §6, §7, §8, §9, §10, §11, §12, §13, §14
# [8] = system: NIH3T3 cells overexpressing coup; experiment: MTT cell viability, coup overexpressing cells vs parental line; details: coup high-expressing cells / parental cell line, 3 to 4 days
# Protocol: as §1, §2, §3, §4, §5, §6, §7, §8, §9, §10, §11, §12, §13, §14
# [9] = system: NIH3T3 cells overexpressing JNK-DN; experiment: MTT cell viability, JNK-DN overexpressing cells vs parental line; details: JNK-DN high-expressing cells / parental cell line, 3 to 4 days
# Protocol: as §1, §2, §3, §4, §5, §6, §7, §8, §9, §10, §11, §12, §13, §14
# [10] = system: NIH3T3 cells overexpressing cystatin alpha; experiment: MTT cell viability, cystatin alpha overexpressing cells vs parental line; details: cystatin alpha high-expressing cells / parental cell line, 3 to 4 days
# Protocol: as §1, §2, §3, §4, §5, §6, §7, §8, §9, §10, §11, §12, §13, §14
# [11] = system: NIH3T3 cells overexpressing p53(wt); experiment: MTT cell viability, p53(wt) overexpressing cells vs parental line; details: p53(wt) high-expressing cells / parental cell line, 3 to 4 days
# Protocol: as §1, §2, §3, §4, §5, §6, §7, §8, §9, §10, §11, §12, §13, §15
# [12] = system: NIH3T3 cells overexpressing HSP9O; experiment: MTT cell viability, HSP9O overexpressing cells vs parental line; details: HSP9O high-expressing cells / parental cell line, 3 to 4 days
# Protocol: as §1, §2, §3, §4, §5, §6, §7, §8, §9, §10, §11, §12, §13, §14
# [13] = system: NIH3T3 cells overexpressing PDGF-R-Del; experiment: MTT cell viability, PDGF-R-Del overexpressing cells vs parental line; details: PDGF-R-Del high-expressing cells / parental cell line, 3 to 4 days
# Protocol: as §1, §2, §3, §4, §5, §6, §7, §8, §9, §10, §11, §12, §13, §14
# [14] = system: NIH3T3 cells overexpressing N-ras; experiment: MTT cell viability, N-ras overexpressing cells vs parental line; details: N-ras high-expressing cells / parental cell line, 3 to 4 days
# Protocol: as §1, §2, §3, §4, §5, §6, §7, §8, §9, §10, §11, §12, §13, §14
# [15] = system: NIH3T3 cells overexpressing Ha-ras; experiment: MTT cell viability, drug sensitivity of Ha-ras overexpressing cells vs parental line; details: Ha-ras high-expressing cells / parental cell line, 3 to 4 days
# Protocol: as §1, §2, §3, §4, §5, §6, §7, §8, §9, §10, §11, §12, §13, §15
# [16] = system: NIH3T3 cells overexpressing C/EBPb; experiment: MTT cell viability, C/EBPb overexpressing cells vs parental line; details: C/EBPb high-expressing cells / parental cell line, 3 to 4 days
# Protocol: as §1, §2, §3, §4, §5, §6, §7, §8, §9, §10, §11, §12, §13, §15
# [17] = system: NIH3T3 cells overexpressing TK; experiment: MTT cell viability, TK overexpressing cells vs parental line; details: TK high-expressing cells / parental cell line, 3 to 4 days
# Protocol: as §1, §2, §3, §4, §5, §6, §7, §8, §9, §10, §11, §12, §13, §14
# [18] = system: NIH3T3 cells overexpressing STAT1; experiment: MTT cell viability, STAT1 overexpressing cells vs parental line; details: STAT1 high-expressing cells / parental cell line, 3 to 4 days
# Protocol: as §1, §2, §3, §4, §5, §6, §7, §8, §9, §10, §11, §12, §13, §15
# [19] = system: NIH3T3 cells overexpressing caspase-3; experiment: MTT cell viability, caspase-3 overexpressing cells vs parental line; details: caspase-3 high-expressing cells / parental cell line, 3 to 4 days
# Protocol: as §1, §2, §3, §4, §5, §6, §7, §8, §9, §10, §11, §12, §13, §15
# [20] = system: NIH3T3 cells overexpressing C/EBPa; experiment: MTT cell viability, C/EBPa overexpressing cells vs parental line; details: C/EBPa high-expressing cells / parental cell line, 3 to 4 days
# Protocol: as §1, §2, §3, §4, §5, §6, §7, §8, §9, §10, §11, §12, §13, §15
# [21] = Bax (first of two Bax lines) high-expressing cells / parental cell line
# [22] = Bax (second of two Bax lines) high-expressing cells / parental cell line
Compound,logarithmic value of ratio of IC40 values [1],logarithmic value of ratio of IC40 values [2],logarithmic value of ratio of IC40 values [3],"logarithmic value of ratio of IC40 values [4, 21]",logarithmic value of ratio of IC40 values [5],logarithmic value of ratio of IC40 values [6],logarithmic value of ratio of IC40 values [7],logarithmic value of ratio of IC40 values [8],logarithmic value of ratio of IC40 values [9],logarithmic value of ratio of IC40 values [10],logarithmic value of ratio of IC40 values [11],logarithmic value of ratio of IC40 values [12],logarithmic value of ratio of IC40 values [13],logarithmic value of ratio of IC40 values [14],logarithmic value of ratio of IC40 values [15],logarithmic value of ratio of IC40 values [17],logarithmic value of ratio of IC40 values [18],"logarithmic value of ratio of IC40 values [4, 22]",logarithmic value of ratio of IC40 values [19],logarithmic value of ratio of IC40 values [20],also measured
CN[C@@H]1C[C@H]2O[C@@](C)([C@@H]1OC)n1c3ccccc3c3c4c(c5c6ccccc6n2c5c31)C(=O)NC4 [Staurosporine],0.18,0.04,−0.22,−0.22,0.62,0.38,−0.09,0.08,0.14,0.30,0.07,0.22,0.28,0.24,0.30,0.46,–,–,–,–,logarithmic value of ratio of IC40 values [16]: −0.23
CN(C)CCCn1cc(C2=C(c3c[nH]c4ccccc34)C(=O)NC2=O)c2ccccc21 [GF109203X],0.92,–,0.48,0.22,−0.28,−0.40,−0.05,0.46,0.58,0.60,0.62,–,0.91,–,−0.39,0.00,0.41,0.27,0.82,0.00,–
sodium vanadate,0.40,0.00,0.11,0.00,−0.30,−0.30,0.00,−0.10,−0.17,0.08,0.00,0.02,0.00,−0.09,−0.33,0.16,0.00,0.32,0.14,−0.02,–
CC(C)(C)C(=O)Oc1ccc(S(=O)(=O)Nc2ccccc2C(=O)NCC(=O)O)cc1 [compound 5046],0.51,−0.1,0.22,−0.07,−0.25,0.51,−0.38,−0.04,−0.09,–,–,0.52,−0.07,0.23,–,−0.24,0.05,–,0.40,–,logarithmic value of ratio of IC40 values [16]: 0.17
"C[C@@H]1O[C@@H](O[C@H]2C[C@@H](O)[C@]3(CO)[C@H]4[C@H](O)C[C@]5(C)[C@@H](C6=CC(=O)OC6)CC[C@]5(O)[C@@H]4CC[C@]3(O)C2)[C@H](O)[C@H](O)[C@H]1O [Ouabain, ouabain]",−0.05,−0.3,0.63,0.40,0.10,0.18,−0.12,0.49,−0.08,1.28,–,0.92,0.19,0.56,0.32,0.00,0.04,0.00,0.65,0.00,logarithmic value of ratio of IC40 values [16]: 0.00
"Nc1nc2nc[nH]c2c(=S)[nH]1 [6-TG, 6-thioguanine]",0.18,−0.25,0.46,0.36,0.46,−0.30,0.20,0.45,0.00,0.60,–,0.57,0.51,−0.22,−0.19,−0.17,0.20,−0.05,1.16,0.00,–
